Data: patent US8501166B2, “Pyrimidinyl indole compounds” (Hutchison Medipharma Limited, priority 2010, dated 2013)
Structures can show the parent of a compound that is named as a salt. Where two headings read alike, the source gives them in different places.

Legend:
[1] = tested on: collagen induced arthritis; assay: Rat collagen II induced arthritis (CIA) model; format: in vivo, Wistar Rats; conditions: 30 mg/kg oral bid, day 1 to day 21
Experimental: To confirm the results obtained in mouse CIA model, the compound is also tested in a CIA model in rat essentially as described in a method reported in the literature (Rosloniec E F, Cremer M, Kang A, Myers L K. Current Protocols in Immunology. 1996, 15.5.1-15.5.24). Briefly, Wistar Rats are immunized intradermally with 200 μg bovine collagen II emulsified in Freund's […] on day 0 and with 100 μg collagen II emulsified in IFA (incomplete Freund's adjuvant) on day 7. The hind paw volume is measured before and after the immunization. The disease development of four paws is quantified with arthritis scores. Rats in normal and model groups are treated with vehicle or drug (treated group). Rats in treated group are orally administered with the testing compound at doses of 3, 10, 30 mg/kg (bid), from day 1 to day 21 after the first immunization. In the LEF group, as a positive control, rats are orally administered with LEF at a dose of 10 mg/kg, q.d.

[2] = tested on: collagen induced arthritis; assay: Collagen induced arthritis (CIA) model in mice; format: in vivo, DBA/1 mice
Experimental: Previous studies have shown that small molecular inhibitors of IKKβ are efficacious in a mouse CIA model (Podolin, P L et al, J. Pharm. Exp. Ther., 2005, 312: 373-381). In addition, mice with T cells expressing a dominant—negative form of IkBa are protected from developing CIA (Seetharaman R. et al. J. Immunol. 1999: 163, 1577-1583). […] Therefore a compound of the present invention is tested in the collagen induced arthritis (CIA) model in mice essentially as described in a method reported in the literature (Rosloniec E F, Cremer M, Kang A, Myers L K. Current Protocols in Immunology. 1996, 15.5.1-15.5.24).
Briefly, DBA/1 mice are immunized intradermally with chicken collagen II (200 μg/mouse) emulsified with Freund's complete adjuvant (CFA, Sigma, US) on day 0 and day 21 to elicit arthritis. The severity of arthritis is assessed using a visual scoring system, in which each paw is graded from 0 to 4 (0=normal, 4=severe swelling of the entire paw). The hind joint thicknesses are measured with a micrometer. The testing compound is orally administered for either prophylactic or therapeutic purposes. For the prophylactic study, the testing compound is orally administered twice daily from day 1 to day 42. For the therapeutic study, the drug treatment is started after the onset of arthritis, which usually occurs within one week of 2nd immunization. Mice are treated with the drug for 21 days. […]

BxPC-3 cells = assay: Cell viability test, combination study, BxPC-3; format: cell-based, human; conditions: for inhibition at 2.5 µM / inhibition at 25 µM: Homo sapiens, BXPC-3, 72 h, read-out: Ave. Inhibition rate
Experimental: To evaluate biological activity of a compound in vitro, the cell viability test is applied, in which, IKKβ receptor plays an important role in cell survival and proliferation. Once the IKKβ pathway is blocked by inhibitors, a cell can go through apoptosis or death. The cell viability test provides information on cell survival after treatment with IKK inhibitors.
BxPC-3 cells (ATCC #CRL-1687; human pancreatic cancer cell line) are grown in Roswell Park Memorial Institute (RPMI) 1640 media (Gibco #A10491-01) supplemented with 10% fetal bovine serum (FBS) (Gibco #10099-141). Skov3-luc cells (ATCC, human ovarian carcinoma cell line) are grown in McCoy's 5a medium (Gibco#16600) supplemented with 10% FBS (Gibco#10099-141). For compound testing, BxPc-3 and Skov3-Luc cells are seeded at 2000 and 5000 cells/well respectively in 100 μL of corresponding media specified above for each cell line in 96-well plates 20 h prior to treatment. Cells are treated with a test compound at eight different concentrations in the presence of 0.5% DMSO for 72 h. Cell death in each well is determined by the addition of 20 μL of the One Solution Reagent (CELLTITER 96® AQueous One Solution Cell Proliferation Assay, Promega #G3580). After 2-4 h of incubation at 37° C., optical densities at 492 nm are measured with a microplate reader Inhibition of cell viability is determined by comparison to the control cells treated in the absence of a test compound.
For the combination study of the compound with other antitumor agents, BxPc-3 and Skov3-Luc cells are seeded at 2000 and 5000 cells/well respectively in 100 μL corresponding media specified above for each cell line in 96-well plates 20 h prior to the treatment. The cells are treated with the test compound at a number of concentrations for 30 minutes and then exposed to 5 ng/mL TNFα or 0.15-0.6 uM of VCR (vincristine sulfate) for an additional 72 hours. Cell death in each well is determined by the addition of 20 μL of the One Solution Reagent (CELLTITER 96® AQueous One Solution Cell Proliferation Assay, Promega #G3580). After 2-4 h of incubation at 37° C., optical densities at 492 nm are measured with a microplate reader Inhibition of cell viability is determined by comparison to the control cells treated in the absence of a test compound. For example, the results of the combination study with Example 1 are specially detailed in Table 2.

[3] = tested on: SKOV-3x-FF-luci human ovarian cancer xenograft; assay: Anti-tumor effects in SKOV-3x-FF-luci xenograft (21 days); format: in vivo, Balb/c nu/nu mice; conditions: 60 mg/kg, tid, q6 h, oral
Experimental: Anti-tumor Effects in Human Ovarian Cancer SKOV-3x-FF-luci Xenograft SKOV-3x-FF-luci human ovarian cancer line cell line (ATCC) is cultured in McCoy's 5a medium containing 10% fetal calf serum (FCS). Female Balb/c nu/nu mice (6-8 weeks old) are peritoneally injected with 0.2 mL of cell suspension containing 2×10^6 cells. Mice are divided into five groups six days after cell implantation. The test compound at doses of 60, 90 and 150 mg/kg is orally administered to animals for a consecutive 21 days with a twice a day (bid) or three times a day (tid) regimen. Mice in control groups are administered the vehicle (10% Acacia at pH 2.1, bid). At the end of the treatment, all mice are euthanized with CO2 and tumors in the peritoneal cavity, diaphragmatic muscle, mesenterium, liver, spleen, and ovaries are dissected and harvested, and put together for the measurement of their combined weight. Results of tumor weight and inhibition rate (IR) are evaluated. The inhibition rate is calculated with the formula: IR %=(tumor weight in control−tumor weight in drug treated)/tumor weight in control×100%.

Structure (SMILES)	arthritis scores and hind paws volume [1]	joint swelling and arthritis scores ([2]; 10 and 30 mg/kg bid (20 and 60 mg/kg/day))	ED50 ([2]; 1008 h, mouse CIA, oral bid for 42 days, read-out: ED50, joint swelling and arthritis scores)	Ave. Inhibition rate (BxPC-3 cells; Example 1 25 μM alone, 72 h, hydrochloride)	inhibition at 2.5 µM (BxPC-3 cells; Example 1 2.5 μM alone)	inhibition at 25 µM (BxPC-3 cells; Example 1 25 μM alone)	inhibition at 2.5 µM (BxPC-3 cells; TNFα 5 ng/mL + Example 1 2.5 μM)	inhibition at 25 µM (BxPC-3 cells; Vincristine 0.15 μM + Example 1 25 μM)	Tumor Weight (g) (Mean ± S.D.) [3]	IR (tumor inhibition rate) ([3]; hydrochloride)
Cl.O=C(NC1CC1)c1cccc2[nH]c(-c3nc(N[C@@H]4CCC[C@H]4O)ncc3Cl)cc12 [Example 2, 2-{5-Chloro-2-[(1R,2R)-2-hydroxycyclopentylamino]pyrimidin-4-yl}-N-cyclopropyl-1H-indole-4-carboxamide hydrochloride]	significantly attenuates collagen induced arthritis	Statistically significant inhibition of joint swelling and reduction of arthritis scores	4.3 mg/kg							
O=C(NC1CC1)c1cccc2[nH]c(-c3nc(N[C@@H]4CCC[C@@H]4O)ncc3Cl)cc12 [Example 1, 2-{5-Chloro-2-[(1R,2S)-2-hydroxycyclopentylamino]pyrimidin-4-yl}-N-cyclopropyl-1H-indole-4-carboxamide hydrochloride]				11.53%	-16.5%	11.5%	87.8%	80.2%	0.509 ± 0.193 g	76.31%
